# Test results as given in patent US12194026B2, “Drug for treating tinnitus” (UNIVERSITY OF SOUTH FLORIDA, priority 2018, dated 2025).
# “Also recorded” adds a separate entry of the source.
# Experiments:
# young adult CBA/CaJ mice [1] = experiment: Gap pre-pulse inhibition of the acoustic startle (GPIAS), Gap-PPI, SS-induced tinnitus
# Experimental: (§1) SS can be administrated 2 hours before measuring the behavioral manifestations of tinnitus.
# (§2) Behavioral assay: The presence of tinnitus may be indicated by a failure to respond to silence embedded in sound stimuli near the tinnitus frequency. A sound pulse-evoked acoustic startle reflex (ASR) is commonly used to determine if an animal can detect silent gaps in narrow-band noise and this method appears to detect tinnitus in humans. Failure of a first sound pulse to suppress a second sound pulse-evoked startle reflex is indicative of tinnitus. This ASR assay has a similar sensitivity for changes in gap detection to a behavioral conditioning paradigm in which animals are trained to response to gaps in noise. Elevations in the ASR amplitude have been linked to the presence of hyperacusis, a disorder often comorbid with tinnitus. Thus, the assay probed possible influences of BK channel function on both tinnitus and hyperacusis.
# (§3) General Procedure. Mice underwent sequential assessment of the effect of treatment (baseline; sodium salicylate; sodium salicylate with BMS-191011). Baseline measures were acquired before sodium salicylate (SS) administration so that mice served as their own controls. Tinnitus was induced transiently by intraperitoneal (i.p.) injection of 250 mg/kg SS (concentration: 25 mg/mL 0.9% saline). SS induces tinnitus in humans, and SS-treated animals share markers of tinnitus with humans. Behavioral or neurophysiological manifestations of tinnitus were assessed 2 hours following SS injection, and were completed within 3.5 hours. Jastreboff et al. reported that after an i.p. injection of SS in rats, the maximum levels in blood serum occurred 1.5 hours later, while the maximum levels in the perilymph and spinal fluid reached maximum levels within 2-4 hours. However, behavioral manifestations of tinnitus are observed up to 48 hours following administration (cite). […]
# Modification of the ASR by stimuli placed before the SES is typically observed as a reduction in startle amplitude or pre-pulse inhibition (Hoffman and Ison, 1980; Ison and Hoffman, 1983). To probe the tinnitus percept (Longenecker and Galazyuk, 2012; Turner, 2007), Turner and colleagues used a relatively long silent gap imbedded in an ongoing narrow band noise (NBN) placed before the SES; various center frequencies of the NBN were used. The paradigm as a whole is referred to as the gap pre-pulse inhibition of the acoustic startle (GPIAS). The silent gap is demonstrably perceived; but, if the tinnitus pitch is in the region of the pitch of the ongoing NBN, the animal will presumably be impaired at detecting the gap (Turner, et al 2007). The presence of tinnitus is then indicated by a reduction in pre-pulse inhibition to the gap stimulus, or Gap-PPI, when the gap carrier pitch is near the tinnitus frequency (Turner, 2007). To perform the GPIAS assay, in this study the SES (presented at 100 dB SPL) was preceded by a 150-ms, 70-dB narrow band noise (⅓ octave) centered at 6, 12, 16, 20, or 24 kHz. During gap trials, a 50-ms silent gap was inserted 100 ms before the SES. Ten trials of each stimulus were presented to obtain the Gap PPI function.
# animals = conditions: cited from earlier work
# IC of awake CBA/CaJ mice = experiment: Multi-channel neurophysiological recordings in the inferior colliculus (IC, auditory midbrain); assay type: in vivo, mouse
# Experimental: IC neurophysiological recordings. Surgery and extracellular recordings were collected and analyzed by a method identical to a procedure used in a previous study. The right IC was located stereotaxically and exposed via a small (<1.0 mm) craniotomy. Prior to recording, chlorprothixene (Taractin®, 5-12 μl/g i.m.) was administered to prevent involuntary movement via inhibition of parasympathetic nerve impulses. The animal was then secured in a custom stereotaxic frame (Newport-Klinger) in a heated (34° C.) chamber lined with sound-absorbing foam (Sonex®). Multi-unit extracellular activity was recorded using vertically oriented single shank silicon acute penetrating 16-channel electrodes with an impedance ranging from 1.2 to 2.1 MΩ (Type-A, 3 mm×100 μm; NeuroNexus Technologies). Excitatory frequency response areas (eFRAs) from all active channels were acquired simultaneously using 2 to 64 kHz, 25 ms (5 ms rise/fall) tone burst stimuli presented at 0 to 80 dB SPL in 5 dB steps. A total of 2125 frequency and intensity combinations were presented pseudo-randomly five times each at a rate of 10/s. The change in the driven response due to treatment was assessed via maximum number of spikes per stimulus within the boundary of each eFRA.
# CBA/CaJ mice = experiment: Auditory brainstem response (ABR) recordings before and after SS
# Experimental: General Procedure. Mice underwent sequential assessment of the effect of treatment (baseline; sodium salicylate; sodium salicylate with BMS-191011). Baseline measures were acquired before sodium salicylate (SS) administration so that mice served as their own controls. Tinnitus was induced transiently by intraperitoneal (i.p.) injection of 250 mg/kg SS (concentration: 25 mg/mL 0.9% saline). SS induces tinnitus in humans, and SS-treated animals share markers of tinnitus with humans. Behavioral or neurophysiological manifestations of tinnitus were assessed 2 hours following SS injection, and were completed within 3.5 hours. Jastreboff et al. reported that after an i.p. injection of SS in rats, the maximum levels in blood serum occurred 1.5 hours later, while the maximum levels in the perilymph and spinal fluid reached maximum levels within 2-4 hours. However, behavioral manifestations of tinnitus are observed up to 48 hours following administration (cite). BMS-191011 (Sigma Aldrich) was administered i.p. (0.5 mg/kg) or topically (1 μL of 1-10 μM) at the dura over the auditory midbrain.
# ABR Assays. To obtain an electrophysiological measure of auditory evoked activity in the auditory nerve and brainstem, ABR assays were performed as described previously (Longenecker and Galazyuk, 2011; Lowe and Walton, 2015), and as briefly outlined below. Animals were anesthetized with i.p. administration of ketamine (120 mg/kg) and xylazine (10 mg/kg). Respiration was monitored during testing and used to guide administration of supplemental anesthesia. Body temperature was kept constant at 37° C. using a feedback-controlled heating pad (Physitemp TCAT2-LV Controller, Clifton, NJ).
# ABRs were recorded using BioSig software in a soundproof booth lined with echo-attenuating acoustic foam. ABRs were evoked by 256 tone burst stimuli. Tone bursts were 3 msec in duration (1-ms rise/fall time, alternating polarity) presented at 6, 12, 16, 20, 24, and 36 kHz at a rate of 29 per second, attenuated in 5 dB steps from 80 dB SPL to 15 dB below threshold or 5 dB SPL, whichever was lower. Threshold was determined by visual inspection as the lowest intensity level which produced a defined peak in two replicates. Peaks 1-5 (P1-5) were detected and measured in the ABR waveforms using custom designed MATLAB software.
# [2] = in vivo; cited from earlier work
# young adult CBA/CaJ mice [3] = experiment: Acoustic startle reflex (ASR) amplitude, startle input-output function, salicylate (SS) tinnitus model
# Experimental: as §1, §2, §3
# Behavioral Assays. Behavioral assessment were performed as described previously (Longenecker and Galazyuk, 2011; Lowe and Walton, 2015), and as briefly outlined below. The animals were acclimated to the testing room by placing the home cage in the testing room 30 min prior to testing. The acoustic startle response (ASR), a transient motor response to a startle eliciting stimulus (SES), was converted to voltage by placing mice on a custom-built platform connected to piezoelectric transducers located inside a sound attenuated chamber. SESs were 20-ms Gaussian broadband noise bursts (1-ms rise/fall time), filtered at 500 Hz-40 kHz. To measure threshold and amplitude of the ASR, the intensity of the SES was varied between 55-115 dB SPL. Ten trials were run for each stimulus in order to acquire the startle input-output function.
# BK channel = BK channel (Homo sapiens, UniProt Q12791); conditions: relative to Maxipost; cited from earlier work
# [4] = cited from earlier work
# [5] = BMS-191011 after SS, 12, 16, 20, 24 kHz tones
# [6] = BMS-191011 after SS, 60 dB tones
# [7] = rats, after i.p. injection, Jastreboff et al.
# [8] = SS 250 mg/kg i.p., 12-20 kHz stimuli
# BK channel, sequence (Q12791 whole entry, species assumed): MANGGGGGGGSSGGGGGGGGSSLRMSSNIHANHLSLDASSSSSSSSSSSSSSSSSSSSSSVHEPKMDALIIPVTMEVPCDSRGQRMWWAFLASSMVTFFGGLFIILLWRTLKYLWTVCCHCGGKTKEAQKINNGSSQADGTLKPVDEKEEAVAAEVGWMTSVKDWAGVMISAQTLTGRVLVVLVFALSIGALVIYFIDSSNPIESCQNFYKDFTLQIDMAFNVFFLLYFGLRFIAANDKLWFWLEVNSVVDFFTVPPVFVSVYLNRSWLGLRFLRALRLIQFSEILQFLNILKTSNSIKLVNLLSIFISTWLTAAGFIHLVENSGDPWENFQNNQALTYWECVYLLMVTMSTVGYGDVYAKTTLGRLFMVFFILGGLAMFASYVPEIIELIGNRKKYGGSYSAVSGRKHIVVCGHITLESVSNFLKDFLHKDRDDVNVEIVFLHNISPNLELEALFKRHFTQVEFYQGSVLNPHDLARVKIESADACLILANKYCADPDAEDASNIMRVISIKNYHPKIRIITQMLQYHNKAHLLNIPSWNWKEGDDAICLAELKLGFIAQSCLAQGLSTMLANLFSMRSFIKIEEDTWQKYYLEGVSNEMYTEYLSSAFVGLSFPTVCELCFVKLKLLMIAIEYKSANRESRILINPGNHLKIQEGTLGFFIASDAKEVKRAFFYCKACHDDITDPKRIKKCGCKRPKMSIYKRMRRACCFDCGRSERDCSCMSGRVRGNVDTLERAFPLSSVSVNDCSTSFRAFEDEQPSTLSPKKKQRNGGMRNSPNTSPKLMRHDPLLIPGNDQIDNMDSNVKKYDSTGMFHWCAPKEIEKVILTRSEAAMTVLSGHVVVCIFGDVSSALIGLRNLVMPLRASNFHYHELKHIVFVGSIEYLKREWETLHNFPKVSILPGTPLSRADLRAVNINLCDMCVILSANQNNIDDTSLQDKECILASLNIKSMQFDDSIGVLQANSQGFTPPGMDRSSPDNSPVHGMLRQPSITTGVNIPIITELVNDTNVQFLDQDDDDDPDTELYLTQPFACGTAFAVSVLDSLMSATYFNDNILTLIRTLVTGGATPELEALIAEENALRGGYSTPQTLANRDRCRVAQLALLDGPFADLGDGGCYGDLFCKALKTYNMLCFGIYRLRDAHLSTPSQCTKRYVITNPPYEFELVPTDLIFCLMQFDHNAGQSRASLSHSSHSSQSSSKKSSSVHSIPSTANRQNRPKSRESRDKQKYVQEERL
structure (smiles),measurement,setting,value
"O=c1oc(-c2ccc(C(F)(F)F)cc2)nn1Cc1cc(Cl)ccc1O [BMS-191011, 3-[(5-chloro-2-hydroxyphenyl)methyl]-5-[4-(trifluoromethyl)phenyl]-1,3,4-oxadiazol-2(3H)-one]",Gap-PPI for stimuli within the tinnitus percept,"young adult CBA/CaJ mice [1]; Example 1, 16 kHz region, after SS, BMS191011 i.p. 5 mg/kg",returned Gap-PPI to baseline levels
same,"% Gap PPI, 12-20 kHz carriers","young adult CBA/CaJ mice [1]; Example 2, BMS-191011 after SS 250 mg/kg, N=6",returned SS-suppressed Gap-PPIs to baseline levels
same,"Gap-PPI, 24 kHz carrier","young adult CBA/CaJ mice [1]; Example 2, BMS-191011 after SS, outside expected tinnitus range",no effect on Gap-PPI
same,"Gap-PPI functions, compound administered alone","young adult CBA/CaJ mice [1]; Example 2, without SS",not significantly altered from baseline
same,"cardiac effects (heart rate, blood pressure)",animals; animals,without signs of negative cardiac effects
same,tolerability in animals,animals; in vivo,well-tolerated
same,sound-evoked activity in the IC,"IC of awake CBA/CaJ mice; Example 1, control mice, local administration (topical application over the dura)",suppressed sound-evoked activity
same,spontaneous activity (spontaneous spikes per 25 ms),"IC of awake CBA/CaJ mice; mice not given SS, topical 1 μL of 1-10 μM",remained unchanged; also recorded: no significant change
same,reduction of sound-evoked activity (maximum number of spikes evoked by a tone),"IC of awake CBA/CaJ mice; mice not given SS, topical 1 μL of 1-10 μM, hours 2-4 after treatment",~50%
same,time after administration by which suppression of sound-evoked activity (maximal spikes per 25 ms stimulus) is significant,"IC of awake CBA/CaJ mice; mice not given SS, topical at the dura, 1 μL of a 1-10 μM solution",≤ 1 h
same,effect of SS on ABR P2 amplitudes,CBA/CaJ mice; BMS-191011 after SS,did not substantively alter; also recorded: did not significantly alter the effect of SS treatment
same,effect of SS on ABR P4 amplitudes,CBA/CaJ mice; BMS-191011 after SS,did not substantively alter; also recorded: did not significantly alter the effect of SS treatment
same,SS-induced ABR threshold shift,"CBA/CaJ mice; BMS-191011 after SS, 1 hour before ABR recordings",did not significantly alter; also recorded: not further altered
same,SS-induced decrease in ABR P1 amplitudes,CBA/CaJ mice; [5],did not significantly alter the effect of SS treatment
same,SS-induced shift in ABR P1 latencies,CBA/CaJ mice; [5],did not significantly alter; also recorded: minimally altered the effect of SS treatment
same,SS-increased P2/P1 amplitude ratio,CBA/CaJ mice; [6],did not substantively alter; also recorded: unaltered
same,SS-increased P4/P1 amplitude ratio,CBA/CaJ mice; [6],unaltered
same,brain availability,[2],high brain-availability
same,ASR amplitude after SS treatment,"young adult CBA/CaJ mice [3]; Example 1, mouse model, SS 2 hours before, BMS191011 i.p. 5 mg/kg",did not appear to return this toward baseline
same,SS-induced increase in startle amplitude intensity-response function,"young adult CBA/CaJ mice [3]; Example 2, BMS-191011 i.p. after SS 250 mg/kg, 1 hour before testing, N=6",did not reverse the effects of SS administration; also recorded: not significantly altered
same,"startle amplitudes, compound administered alone","young adult CBA/CaJ mice [3]; Example 2, without SS",did not alter startle amplitudes
same,affinity and specificity for the BK channel compared with Maxipost,BK channel,higher affinity and specificity
"O=C([O-])c1ccccc1O.[Na+] [SS, sodium salicylate]","Gap-PPI relative to baseline, 12-20 kHz carrier",young adult CBA/CaJ mice [1]; SS 250 mg/kg i.p. alone,reduced Gap-PPI; also recorded: significant decrease in % Gap PPI
same,"Gap-PPI, 24 kHz carrier",young adult CBA/CaJ mice [1]; SS 250 mg/kg i.p. alone,did not influence Gap-PPI
same,time for which behavioral manifestations of tinnitus are observed after administration,[4]; following administration,up to 48 hours
same,time of maximum levels in blood serum,[4]; [7],1.5 h
same,time of maximum levels in perilymph and spinal fluid,[4]; [7],2 to 4 h
same,ABR P1 amplitudes relative to baseline,CBA/CaJ mice; SS 250 mg/kg i.p.,significantly reduced P1 amplitudes
same,ABR P1 latencies relative to baseline,CBA/CaJ mice; SS 250 mg/kg i.p.,longer P1 latencies; also recorded: significantly delayed P1 latencies
same,P2/P1 amplitude ratio relative to baseline,CBA/CaJ mice; [8],substantially increased; also recorded: significantly increased the P2/P1 ratio
same,P4/P1 amplitude ratio relative to baseline,CBA/CaJ mice; [8],still increased; also recorded: significantly increased the P4/P1 ratio
same,ABR P2 amplitude relative to baseline,"CBA/CaJ mice; SS 250 mg/kg i.p., 12-20 kHz, higher intensities (60-80 dB SPL)",either increased or stayed the same; also recorded: increased P2 amplitude at 80 dB
same,increase in ABR thresholds,"CBA/CaJ mice; SS 250 mg/kg i.p., across the frequency spectrum",~20 dB
same,startle amplitude intensity-response function relative to baseline,young adult CBA/CaJ mice [3]; SS 250 mg/kg i.p. alone,increased the intensity-response function; also recorded: significant increase in startle amplitude
